Laboratory results published in patent publication US12152020B2, “Pesticidally active azole-amide compounds” (SYNGENTA PARTICIPATIONS AG, priority 2018, dated 2024).

Columns and labels:
Type in all cases: in vivo
[1] = tested on: Myzus persicae (Green Peach Aphid); assay: Example B13: Myzus persicae, sucrose solution under Parafilm, 96-well; settings: 120 h, application rate of 50 ppm, 5 days after infestation
From the text: Example B13: Myzus persicae (Green Peach Aphid)
Test compounds prepared from 10′000 ppm DMSO stock solutions were applied by a liquid handling robot into 96-well microtiter plates and mixed with a sucrose solution. Parafilm was stretched over the 96-well microtiter plate and a plastic stencil with 96 holes was placed onto the plate. Aphids were sieved into the wells directly onto the Parafilm. The infested plates were closed with a gel blotting card and a second plastic stencil and then turned upside down. The samples were assessed for mortality 5 days after infestation.

[2] = tested on: Plutella xylostella (Diamondback Moth); assay: Example B14: Plutella xylostella, artificial diet in 96-well plates, eggs; settings: 216 h, application rate of 500 ppm, 9 days after infestation
Protocol: Example B14: Plutella xylostella (Diamondback Moth)
96-well microtiter plates containing artificial diet were treated with aqueous test solutions, prepared from 10′000 ppm DMSO stock solutions, by a liquid handling robot. After drying, eggs (˜30 per well) were infested onto a netted lid which was suspended above the diet. The eggs hatch and L1 larvae move down to the diet. The samples were assessed for mortality 9 days after infestation.
The following compounds gave an effect of at least 80% average mortality at an application rate of 500 ppm: • P2, P3, P5, P6, P7, P9, P15, P16, P17, P18, P20, P22, P24, P25, P30, P31, P32, P33, P38.

[3] = tested on: Myzus persicae (Green Peach Aphid); assay: Example B8: Myzus persicae intrinsic activity, sucrose solution under Parafilm, 24-well; settings: 120 h, test rate of 12 ppm, 5 days after infestation
From the text: Example B8: Myzus persicae (Green Peach Aphid): Intrinsic Activity
Test compounds prepared from 10′000 ppm DMSO stock solutions were applied by pipette into 24-well microtiter plates and mixed with sucrose solution. The plates were closed with a stretched Parafilm. A plastic stencil with 24 holes was placed onto the plate and infested pea seedlings were placed directly on the Parafilm. The infested plate was closed with a gel blotting paper and another plastic stencil and then turned upside down. The samples were assessed for mortality 5 days after infestation.

[4] = tested on: Euschistus heros (Neotropical Brown Stink Bug); assay: Example B2: Euschistus heros, soybean leaves sprayed, N2 nymphs; settings: 120 h, application rate of 200 ppm, 5 days after infestation, in comparison to untreated samples, read-out: effect in at least one of the two categories (mortality or growth inhibition)
Protocol: Example B2: Euschistus heros (Neotropical Brown Stink Bug)
Soybean leaves on agar in 24-well microtiter plates were sprayed with aqueous test solutions prepared from 10′000 ppm DMSO stock solutions. After drying the leaves were infested with N2 nymphs. The samples were assessed for mortality and growth inhibition in comparison to untreated samples 5 days after infestation.
The following compounds gave an effect of at least 80% in at least one of the two categories (mortality or growth inhibition) at an application rate of 200 ppm: • P1, P2, P3, P7, P11, P12, P16, P17, P18, P22, P25, P29, P32, P33, P37, P38

[5] = tested on: Chilo suppressalis (Striped Rice Stemborer); assay: Example B4: Chilo suppressalis, artificial diet, L2 larvae; settings: 144 h, application rate of 200 ppm, 6 days after infestation, in comparison to untreated samples, read-out: control in at least one of the categories (mortality, anti-feedant effect, or growth inhibition)
Protocol: Example B4: Chilo suppressalis (Striped Rice Stemborer)
24-well microtiter plates with artificial diet were treated with aqueous test solutions prepared from 10′000 ppm DMSO stock solutions by pipetting. After drying, the plates were infested with L2 larvae (6-8 per well). The samples were assessed for mortality, anti-feeding effect, and growth inhibition in comparison to untreated samples 6 days after infestation. Control of Chilo suppressalis by a test sample is given when at least one of the categories mortality, anti-feedant effect, and growth inhibition is higher than the untreated sample.

[6] = tested on: Plutella xylostella (Diamond Back Moth); assay: Example B5: Plutella xylostella, artificial diet in 24-well plates, eggs; settings: 192 h, application rate of 200 ppm, 8 days after infestation, in comparison to untreated samples, read-out: effect in at least one of the two categories (mortality or growth inhibition)
Protocol: Example B5: Plutella xylostella (Diamond Back Moth)
24-well microtiter plates with artificial diet were treated with aqueous test solutions prepared from 10′000 ppm DMSO stock solutions by pipetting. After drying, Plutella eggs were pipetted through a plastic stencil onto a gel blotting paper and the plate was closed with it. The samples were assessed for mortality and growth inhibition in comparison to untreated samples 8 days after infestation.
The following compounds gave an effect of at least 80% in at least one of the two categories (mortality or growth inhibition) at an application rate of 200 ppm: • P1, P2, P3, P4, P5, P7, P8, P9, P14, P15, P16, P17, P18, P21, P22, P23, P24, P25, P27, P28, P29, P30, P31, P32, P33, P34, P35, P36

[7] = tested on: Frankliniella occidentalis (Western Flower Thrips); assay: Example B3: Frankliniella occidentalis feeding/contact activity, sunflower leaf discs; settings: foliar, 168 h, application rate of 200 ppm, population of mixed ages, 7 days after infestation
Protocol: Example B3: Frankliniella occidentalis (Western Flower Thrips):Feeding/Contact Activity
Sunflower leaf discs were placed on agar in 24-well microtiter plates and sprayed with aqueous test solutions prepared from […] stock solutions. After drying the leaf discs were infested with a Frankliniella population of mixed ages. The samples were assessed for mortality 7 days after infestation.

[8] = tested on: Spodoptera littoralis (Egyptian Cotton Leaf Worm); assay: Example B9: Spodoptera littoralis, cotton leaf discs sprayed, L1 larvae; settings: foliar, 72 h, application rate of 200 ppm, five L1 larvae, 3 days after infestation, in comparison to untreated samples, read-out: control in at least one of the categories (mortality, anti-feedant effect, or growth inhibition)
Protocol: Example B9: Spodoptera littoralis (Egyptian Cotton Leaf Worm)
Cotton leaf discs were placed onto agar in 24-well microtiter plates and sprayed with aqueous test solutions prepared from 10′000 ppm DMSO stock solutions. After drying the leaf discs were infested with five L1 larvae. The samples were assessed for mortality, anti-feeding effect, and growth inhibition in comparison to untreated samples 3 days after infestation. Control of Spodoptera littoralis by a test sample is given when at least one of the categories mortality, anti-feedant effect, and growth inhibition is higher than the untreated sample.

[9] = tested on: Diabrotica balteata (Corn Root Worm); assay: Example B1: Diabrotica balteata, maize sprouts sprayed, L2 larvae; settings: 96 h, application rate of 200 ppm, 4 days after infestation, in comparison to untreated samples, read-out: effect in at least one of the two categories (mortality or growth inhibition)
Protocol: Example B1: Diabrotica balteata (Corn Root Worm)
Maize sprouts placed onto an agar layer in 24-well microtiter plates were treated with aqueous test solutions prepared from 10′000 ppm DMSO stock solutions by spraying. After drying, the plates were infested with L2 larvae (6 to 10 per well). The samples were assessed for mortality and growth inhibition in comparison to untreated samples 4 days after infestation.
The following compounds gave an effect of at least 80% in at least one of the two categories (mortality or growth inhibition) at an application rate of 200 ppm: • P2, P3, P4, P5, P6, P7, P8, P14, P15, P16, P17, P18, P19, P20, P21, P22, P23, P24, P25, P27, P28, P29, P30, P31, P32, P33, P34, P35

[10] = tested on: Myzus persicae (Green Peach Aphid); assay: Example B6: Myzus persicae feeding/contact activity, sunflower leaf discs; settings: foliar, 144 h, application rate of 200 ppm, aphid population of mixed ages, 6 days after infestation
Protocol: Example B6: Myzus persicae (Green Peach Aphid): Feeding/Contact Activity
Sunflower leaf discs were placed onto agar in a 24-well microtiter plate and sprayed with aqueous test solutions prepared from 10′000 ppm DMSO stock solutions. After drying, the leaf discs were infested with an aphid population of mixed ages. The samples were assessed for mortality 6 days after infestation.

CC(NC(=O)c1cc(C(F)(F)F)cc(C(F)(F)F)c1)c1nc(C=O)nn1-c1ncccn1 (centres unmarked) [Compound P38, N-[1-(5-formyl-2-pyrimidin-2-yl-1,2,4-triazol-3-yl)ethyl]-3,5-bis(trifluoromethyl) benzamide]
≥ 80%: mortality at 50 ppm [1] | mortality at 500 ppm [2] | mortality at 12 ppm [3] | percent effect (mortality or growth inhibition) at 200 ppm [4]

CC(NC(=O)c1cc(C(F)(F)F)cc(C(F)(F)F)c1)c1nc(-c2ncno2)nn1-c1ncccn1 (centres unmarked) [Compound P1, N-[1-[5-(1,2,4-oxadiazol-5-yl)-2-pyrimidin-2-yl-1,2,4-triazol-3-yl]ethyl]-3,5-bis(trifluoromethyl)benzamide]
≥ 80%: percent control (mortality, anti-feedant effect or growth inhibition) at 200 ppm [5] | percent effect (mortality or growth inhibition) at 200 ppm [6] | mortality at 200 ppm [7] | percent effect (mortality or growth inhibition) at 200 ppm [4]

CC(NC(=O)c1cc(C(F)(F)F)cc(C(F)(F)F)c1)c1nc(OC(F)(F)F)nn1-c1ccccn1 (centres unmarked) [Compound P25, N-[1-[2-(2-pyridyl)-5-(trifluoromethoxy)-1,2,4-triazol-3-yl]ethyl]-3,5-bis(trifluoromethyl) benzamide]
≥ 80%: percent control (mortality, anti-feedant effect or growth inhibition) at 200 ppm [5] | percent control (mortality, anti-feedant effect or growth inhibition) at 200 ppm [8] | percent effect (mortality or growth inhibition) at 200 ppm [9] | mortality at 500 ppm [2] | percent effect (mortality or growth inhibition) at 200 ppm [6] | percent effect (mortality or growth inhibition) at 200 ppm [4]

CC(c1nc(C(=O)N(C)C)nn1-c1ncccn1)N(C)C(=O)c1cc(C(F)(F)F)cc(C(F)(F)F)c1 (centres unmarked) [Compound P11, 5-[1-[[3,5-bis(trifluoromethyl)benzoyl]-methyl-amino]ethyl]-N,N-dimethyl-1-pyrimidin-2-yl-1,2,4-triazole-3-carboxamide]
≥ 80%: mortality at 50 ppm [1] | percent control (mortality, anti-feedant effect or growth inhibition) at 200 ppm [5] | mortality at 12 ppm [3] | mortality at 200 ppm [10] | percent effect (mortality or growth inhibition) at 200 ppm [4]

CC(NC(=O)c1cc(C(F)(F)F)cc(C(F)(F)F)c1)c1nc(Br)nn1-c1ncccn1 (centres unmarked) [Compound P4, N-[1-(5-bromo-2-pyrimidin-2-yl-1,2,4-triazol-3-yl)ethyl]-3,5-bis(trifluoromethyl) benzamide]
≥ 80%: percent control (mortality, anti-feedant effect or growth inhibition) at 200 ppm [5] | percent control (mortality, anti-feedant effect or growth inhibition) at 200 ppm [8] | percent effect (mortality or growth inhibition) at 200 ppm [9] | percent effect (mortality or growth inhibition) at 200 ppm [6] | mortality at 200 ppm [7] | mortality at 12 ppm [3] | mortality at 200 ppm [10]

CC(NC(=O)c1cc(C(F)(F)F)cc(C(F)(F)F)c1)c1nc(OCC(F)F)nn1-c1ncccn1 (centres unmarked) [Compound P29, N-[1-[5-(2,2-difluoroethoxy)-2-pyrimidin-2-yl-1,2,4-triazol-3-yl]ethyl]-3,5-bis(trifluoromethyl) benzamide]
≥ 80%: percent control (mortality, anti-feedant effect or growth inhibition) at 200 ppm [5] | percent control (mortality, anti-feedant effect or growth inhibition) at 200 ppm [8] | percent effect (mortality or growth inhibition) at 200 ppm [9] | percent effect (mortality or growth inhibition) at 200 ppm [6] | percent effect (mortality or growth inhibition) at 200 ppm [4]

CC(NC(=O)c1cc(C(F)(F)F)cc(C(F)(F)F)c1)c1nc(OC(F)F)nn1-c1ncccn1 (centres unmarked) [Compound P28, N-[1-[5-(difluoromethoxy)-2-pyrimidin-2-yl-1,2,4-triazol-3-yl]ethyl]-3,5-bis(trifluoromethyl)benzamide]
≥ 80%: percent control (mortality, anti-feedant effect or growth inhibition) at 200 ppm [5] | percent control (mortality, anti-feedant effect or growth inhibition) at 200 ppm [8] | percent effect (mortality or growth inhibition) at 200 ppm [9] | percent effect (mortality or growth inhibition) at 200 ppm [6] | mortality at 200 ppm [7] | mortality at 12 ppm [3]

CC(NC(=O)c1cc(Cl)cc(C(F)(F)F)c1)c1nc(Br)nn1-c1ncccn1 (centres unmarked) [Compound P33, N-[1-(5-bromo-2-pyrimidin-2-yl-1,2,4-triazol-3-yl)ethyl]-3-chloro-5-(trifluoromethyl) benzamide]
≥ 80%: mortality at 50 ppm [1] | percent control (mortality, anti-feedant effect or growth inhibition) at 200 ppm [5] | percent control (mortality, anti-feedant effect or growth inhibition) at 200 ppm [8] | percent effect (mortality or growth inhibition) at 200 ppm [9] | mortality at 500 ppm [2] | percent effect (mortality or growth inhibition) at 200 ppm [6] | percent effect (mortality or growth inhibition) at 200 ppm [4]
